Measurements reported in patent US10221139B2, “Inhibitors of histone demethylases” (Gilead Sciences, Inc., priority 2012, dated 2019).

Key:
[1] = molecular target: T1, PLU1 (KDM5B) (Homo sapiens, UniProt Q9UGL1); assay: Histone lysine demethylase AlphaLISA assay, PLU1; type: biochemical; conditions: substrate H3K4M3B
T1 construct: 1-809; host or cells: E. coli
T1 sequence (Q9UGL1 1-809): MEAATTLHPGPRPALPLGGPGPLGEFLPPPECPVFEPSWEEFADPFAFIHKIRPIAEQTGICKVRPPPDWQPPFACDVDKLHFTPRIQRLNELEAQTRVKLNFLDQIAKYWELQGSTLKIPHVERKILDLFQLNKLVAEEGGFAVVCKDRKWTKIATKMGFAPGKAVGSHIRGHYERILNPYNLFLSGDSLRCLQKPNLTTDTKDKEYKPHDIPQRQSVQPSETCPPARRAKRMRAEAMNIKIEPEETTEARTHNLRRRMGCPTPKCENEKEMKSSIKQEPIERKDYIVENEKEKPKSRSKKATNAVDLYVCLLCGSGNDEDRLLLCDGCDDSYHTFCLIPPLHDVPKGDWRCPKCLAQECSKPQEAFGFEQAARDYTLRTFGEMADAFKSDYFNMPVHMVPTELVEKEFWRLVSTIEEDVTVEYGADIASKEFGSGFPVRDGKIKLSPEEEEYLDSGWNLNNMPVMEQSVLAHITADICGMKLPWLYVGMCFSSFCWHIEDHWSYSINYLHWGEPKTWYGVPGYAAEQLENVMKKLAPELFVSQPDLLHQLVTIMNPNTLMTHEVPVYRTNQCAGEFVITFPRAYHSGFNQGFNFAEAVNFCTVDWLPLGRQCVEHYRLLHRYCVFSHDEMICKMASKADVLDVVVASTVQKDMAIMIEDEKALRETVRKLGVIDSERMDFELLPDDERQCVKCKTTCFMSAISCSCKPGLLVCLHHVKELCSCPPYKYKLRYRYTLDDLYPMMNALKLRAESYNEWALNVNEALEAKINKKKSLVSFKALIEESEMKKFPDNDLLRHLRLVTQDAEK
Experimental: (§1) Example 2: Histone Lysine Demethylase AlphaLISA Assays for IC50 Value Determination
(§2) Assays are performed analogously to the protocol described by Perkin Elmer (Roy et al. Perkin Elmer Technical Note: AlphaLISA #12, April 2011).
(§3) Enzymes are dissolved in enzyme buffer and incubated for 10 min before 5 μL is added to 5 μL 3% DMSO solutions of compounds in enzyme buffer. Incubated for another 10 minutes, before 5 μL substrate solution is added and the reaction mixture is incubated at room temperature for the given period. 10 μL acceptor beads, suspended at given dilutions in Epigenetic Buffer (Perkin Elmer AL008) from stock, are added and the suspension is incubated 60 minutes in the dark at room temperature, before 10 μL suspension (at the given dilutions in Epigenetic Buffer) of streptavidin donor beads (Perkin Elmer 6760002) in Epigenetic Buffer is added. After incubation at room temperature in the dark the plates are read. Reaction conditions are seen in Table 2b.

[2] = molecular target: T2, GASC1 (KDM4C, JMJD2C) (Homo sapiens, UniProt Q9H3R0); assay: Histone lysine demethylase AlphaLISA assay, GASC1; type: biochemical; conditions: substrate BK9M3
T2 construct: 1-349; host or cells: E. coli
T2 sequence (Q9H3R0 1-349): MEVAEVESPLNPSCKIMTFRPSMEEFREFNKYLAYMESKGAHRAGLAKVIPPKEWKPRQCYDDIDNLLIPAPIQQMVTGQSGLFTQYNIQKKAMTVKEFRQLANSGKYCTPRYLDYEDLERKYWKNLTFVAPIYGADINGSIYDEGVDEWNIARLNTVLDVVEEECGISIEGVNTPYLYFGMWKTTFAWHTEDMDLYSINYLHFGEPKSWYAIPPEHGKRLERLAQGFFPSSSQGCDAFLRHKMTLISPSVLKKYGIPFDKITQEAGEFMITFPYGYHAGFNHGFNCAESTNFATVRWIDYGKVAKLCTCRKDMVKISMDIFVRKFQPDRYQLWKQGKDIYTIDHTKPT
Experimental: as §1, §2, §3

SMILES	IC50 [1]	IC50 [2]
CCN(CCN(C)C)C(=O)CNCc1cc(C(=O)OC(C)CCNC(=O)C(F)(F)F)ccn1 (centres unmarked) [#63, 4-(trifluoroacetamido)butan-2-yl 2-{[({[2-(dimethylamino)ethyl](ethyl)carbamoyl}methyl)amino]methyl}pyridine-4-carboxylate]	100 to 1000 nM	100 to 1000 nM
CCN(CCN(C)C)C(=O)CNCc1cc(C(=O)OC(CNC(=O)C(F)(F)F)CC(=O)OC(C)C)ccn1 (centres unmarked) [#73, propan-2-yl 3-(2-{[({[2-(dimethylamino)ethyl](ethyl)carbamoyl}methyl)amino]methyl}pyridine-4-carbonyloxy)-4-(trifluoroacetamido)butanoate]	100 to 1000 nM	100 to 1000 nM
CCN(CCN(C)C)C(=O)CNCc1cc(C(=O)Oc2ccc(C(C)(C)C)cc2)ccn1 [#61, 4-tert-butylphenyl 2-{[({[2-(dimethylamino)ethyl](ethyl)carbamoyl}methyl)amino]methyl}pyridine-4-carboxylate]	< 100 nM	< 100 nM
CCN(CCN(C)C)C(=O)CNCc1cc(C(=O)Oc2c(OC(C)C)cccc2OC(C)C)ccn1 [#85, 2,6-bis(propan-2-yloxy)phenyl 2-{[({[2-(dimethylamino)ethyl](ethyl)carbamoyl}methyl)amino]methyl}pyridine-4-carboxylate]	100 to 1000 nM	100 to 1000 nM
CCN(CCN(C)C)C(=O)CNCc1cc(C(=O)OC(CCNC(=O)C(F)(F)F)CC(=O)OC(C)C)ccn1 (centres unmarked) [#74, propan-2-yl 3-(2-{[({[2-(dimethylamino)ethyl](ethyl)carbamoyl}methyl)amino]methyl}pyridine-4-carbonyloxy)-5-(trifluoroacetamido)pentanoate]	< 100 nM	100 to 1000 nM

Now from value to molecule:

IC50 [1]	IC50 [2]	SMILES
100 to 1000 nM	≥ 1000 nM	COC(=O)c1ccnc(CNCCCN2CCCC2)c1 [#47, methyl 2-({[3-(pyrrolidin-1-yl)propyl]amino}methyl)pyridine-4-carboxylate]
< 100 nM	< 100 nM	CCN(CCN(C)C)C(=O)CNCc1cc(C(=O)Nc2ccnn2C)ccn1 [#77, 2-{[({[2-(dimethylamino)ethyl](ethyl)carbamoyl}methyl)amino]methyl}-N-(1-methyl-1H-pyrazol-5-yl)pyridine-4-carboxamide]
< 100 nM	< 100 nM	CCN(CCN(C)C)C(=O)CNCc1cc(C(=O)Nc2ncco2)ccn1 [#84, 2-{[({[2-(dimethylamino)ethyl](ethyl)carbamoyl}methyl)amino]methyl}-N-(1,3-oxazol-2-yl)pyridine-4-carboxamide]
< 100 nM	< 100 nM	CCN(CCN(C)C)C(=O)CNCc1cc(C(=O)OC(C)CC(C)=O)ccn1 (centres unmarked) [#62, 4-oxopentan-2-yl 2-{[({[2-(dimethylamino)ethyl](ethyl)carbamoyl}methyl)amino]methyl}pyridine-4-carboxylate]
≥ 1000 nM	≥ 1000 nM	CC(C)C[C@@H](C(=O)N1CCCCC1)N(C)Cc1cc(C(=O)O)ccn1 [#93, 2-({methyl[(2S)-4-methyl-1-oxo-1-(piperidin-1-yl)pentan-2-yl]amino}methyl)pyridine-4-carboxylic acid]
< 100 nM	< 100 nM	CCN(CCN(C)C)C(=O)CNCc1cc(C(=O)Nc2nnc(C)o2)ccn1 [#76, 2-{[({[2-(dimethylamino)ethyl](ethyl)carbamoyl}methyl)amino]methyl}-N-(5-methyl-1,3,4-oxadiazol-2-yl)pyridine-4-carboxamide]
≥ 1000 nM	≥ 1000 nM	O=C(O)c1ccnc(CN2CCCCC2)c1 [#78, 2-(piperidin-1-ylmethyl)pyridine-4-carboxylic acid]
< 100 nM	100 to 1000 nM	CCN(CCN(C)C)C(=O)CNCc1cc(C(=O)Nc2ccncc2)ccn1 [#75, 2-{[({[2-(dimethylamino)ethyl](ethyl)carbamoyl}methyl)amino]methyl}-N-(pyridin-4-yl)pyridine-4-carboxamide]
